US20130267594A1, “PROLYL HYDROXYLASE INHIBITORS AS RADIATION MITIGATORS AND RADIATION PROTECTORS” (priority 2010, published 2013)

Experiments:
KDM4D = molecular target: T1, KDM4D (Homo sapiens, UniProt Q6B0I6); assay: KDM4D demethylation of H3K9me3 in transfected cells, immunofluorescent staining (FIG. 2); assay type: cell-based
T1 construct: expressed in transfected cells
T1 sequence (Q6B0I6 1-523): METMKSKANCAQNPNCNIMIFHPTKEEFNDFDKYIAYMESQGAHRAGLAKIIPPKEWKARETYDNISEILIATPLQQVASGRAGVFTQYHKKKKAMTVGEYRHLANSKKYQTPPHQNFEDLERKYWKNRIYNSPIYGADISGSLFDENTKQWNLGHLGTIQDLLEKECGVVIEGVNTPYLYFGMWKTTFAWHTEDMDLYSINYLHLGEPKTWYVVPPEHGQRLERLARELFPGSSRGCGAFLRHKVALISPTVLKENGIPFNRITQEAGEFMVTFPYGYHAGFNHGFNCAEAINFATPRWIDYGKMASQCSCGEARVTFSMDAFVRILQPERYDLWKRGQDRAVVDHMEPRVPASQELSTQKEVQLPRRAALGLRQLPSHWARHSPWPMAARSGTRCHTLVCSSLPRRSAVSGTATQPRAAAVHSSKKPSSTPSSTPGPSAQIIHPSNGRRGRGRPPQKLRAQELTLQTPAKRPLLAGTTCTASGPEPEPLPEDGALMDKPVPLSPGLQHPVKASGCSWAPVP
Description: HeLa cells were transiently transfected with either vector or KDM4D, followed by incubation with either solvent (PBS, control) or DMOG (100 μM) and then visualized by fluorescent microscopy.
Immunofluorescence: Cells (on cover slides) were fixed in phosphate-buffered saline (PBS) containing 2% paraformaldehyde. Cells were permeabilized in 0.2% Triton X-100 in PBS for 5mins, and then blocked in fetal bovine serum for 20 min, Primary antibodies were prepared in 10% fetal bovine serum supplemented with 0.2% saponin. After a 1 h incubation with primary antibody, cells were washed three times with 0.2% Tween-20 and incubated for 1 h in secondary antibody (conjugated to either Texas Red or FITC; Santa Cruz Biotechnology, CA). Slides were mounted with Fluoromount-G (Southern Biotech, AL). […]
KDMs utilize an Fe-oxo intermediate to form an unstable hydroxy-methyl intermediate, which spontaneously releases formaldehyde, leading to removal of a single methyl group. […] In FIG. 2B, Murine Embryonic Fibroblasts (MEFs) were transfected with empty vector or KDM4D, which specifically demethylates H3K9me3, and the levels of chromatin associated H3K9me3 measured by immunofluorescent staining using an anti-H3K9me3 antibody. In untreated cells, high levels of H3K9me3 were detected, and transient expression of the H3K9me3 demethylase KDM4D essentially demethylated the entire nuclear H3K9me3 signal. […]

Suv39h1/2−/− cells = assay: Clonogenic cell survival assay after ionizing radiation, Suv39h1/Suv39h2 double knockout MEFs; assay type: cell-based, mouse
Hif1α = assay type: cell-based
KDM4A = molecular target: T2, KDM4A (Homo sapiens, UniProt O75164); assay: H3K9me3 immunofluorescent staining in HEK293T cells transiently expressing KDM4A (FIG. 10B); assay type: cell-based; conditions: DMOG 1 mM 24 hrs
T2 construct: expressed in transfected cells; host or cells: HEK293T cells
T2 sequence (O75164 1-1064): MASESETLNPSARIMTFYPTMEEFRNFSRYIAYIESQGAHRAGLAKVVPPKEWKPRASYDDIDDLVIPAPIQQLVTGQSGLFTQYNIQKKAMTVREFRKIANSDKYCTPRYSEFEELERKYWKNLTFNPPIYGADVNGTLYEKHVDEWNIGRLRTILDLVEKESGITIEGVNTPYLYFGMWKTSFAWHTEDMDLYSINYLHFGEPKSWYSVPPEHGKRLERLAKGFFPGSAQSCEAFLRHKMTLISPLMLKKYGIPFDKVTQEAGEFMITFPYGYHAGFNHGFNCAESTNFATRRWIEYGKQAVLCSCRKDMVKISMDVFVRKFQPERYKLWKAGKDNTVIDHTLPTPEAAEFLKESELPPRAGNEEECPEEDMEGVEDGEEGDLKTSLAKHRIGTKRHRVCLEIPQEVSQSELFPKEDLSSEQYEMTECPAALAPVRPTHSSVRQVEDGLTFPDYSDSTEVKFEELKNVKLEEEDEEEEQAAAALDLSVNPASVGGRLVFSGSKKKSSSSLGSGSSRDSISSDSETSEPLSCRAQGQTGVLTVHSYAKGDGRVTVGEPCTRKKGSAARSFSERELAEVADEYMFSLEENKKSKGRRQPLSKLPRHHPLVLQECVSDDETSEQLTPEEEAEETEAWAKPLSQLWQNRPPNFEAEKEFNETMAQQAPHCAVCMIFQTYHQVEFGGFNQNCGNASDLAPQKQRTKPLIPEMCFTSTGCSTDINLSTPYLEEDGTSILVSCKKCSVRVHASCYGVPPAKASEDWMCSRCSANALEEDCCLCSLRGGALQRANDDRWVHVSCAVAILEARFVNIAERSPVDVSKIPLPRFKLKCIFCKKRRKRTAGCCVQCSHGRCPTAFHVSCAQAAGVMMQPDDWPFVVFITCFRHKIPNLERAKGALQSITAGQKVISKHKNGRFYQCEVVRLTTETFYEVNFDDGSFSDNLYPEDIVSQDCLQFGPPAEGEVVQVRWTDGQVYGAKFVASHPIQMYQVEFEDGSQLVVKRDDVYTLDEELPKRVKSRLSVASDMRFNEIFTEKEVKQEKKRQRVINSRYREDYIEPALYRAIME

COC(=O)CNC(=O)C(=O)OC [DMOG, dimethyloxalylglycine]
ability of KDM4D to demethylate H3K9me3 (KDM4D; cells expressing KDM4D, DMOG 100 μM, anti-H3K9me3 staining): inhibited the ability of KDM4D to demethylate H3K9me3 | level of expression of the KDM4D enzyme (KDM4D; control experiments to FIG. 2): did not alter the level of expression of the KDM4D enzyme | protective effect (clonogenic survival) in SuvDKO MEFs versus normal MEFs (Suv39h1/2−/− cells; MEF-SuvDKO, DMOG 1 mM, FIG. 11C): significantly reduced | radioprotective effect (clonogenic survival) (Suv39h1/2−/− cells; Suv39h1/h2−/− cells compared to +/+, FIG. 4B): much larger radioprotective effects | accumulation of Hif1α (Hif1α): significant accumulation of Hif1α | accumulation of Hif1α protein in combination with IR, versus agent alone (Hif1α): much larger accumulation of Hif1α protein | H3K9me3 levels in cells expressing KDM4A (KDM4A): restored H3K9me3 levels to near normal
